With `O=C(N[C@H]1CCCC[C@@H]1C(=O)Nc1ccc(Cl)cn1)c1ccc(-n2ccccc2=O)cc1` [Example 1], the melting point is 301 to 303 °C.

The values are drawn from patent publication US20060074103A1, “Cyclic beta-amino acid derivatives as factor Xa inhibitors” (priority 2004, published 2006).
